Assay results as given in PubChem BioAssay AID1259407 (Chemical Carcinogenesis Research Information System (CCRIS), 2018).
Calls of active or inactive are those of the source. How the calls were made is not given here.

System: CCRIS mutagenicity, Ames/micronucleus/aberration tests
Assay: CCRIS mutagenicity studies

Compound: O=C(O)CN(CC(=O)O)CC(=O)O
- mutagenic call (End Point: IN VITRO CHROMOSOMAL ABERRATIONS, Test System: CHO CELLS, Metabolic Activation: NONE): inactive; negative
- mutagenic call (End Point: IN VITRO CHROMOSOMAL ABERRATIONS, Test System: CHO CELLS, Metabolic Activation: RAT, LIVER, S-9, AROCLOR 1254): inactive; negative
- mutagenic call (End Point: IN VITRO MICRONUCLEUS, Test System: CHINESE HAMSTER EMBRYONIC LUNG (CL-1) CELLS, Metabolic Activation: NONE): active; positive at higher doses
- mutagenic call (End Point: In vitro micronucleus, Test System: CTLL-2 T mouse lymphocyte cells, Metabolic Activation: None): active; positive
- mutagenic call (End Point: In vitro micronucleus, Test System: CTLL-2 T mouse lymphocyte cells, Metabolic Activation: Rat, Kidney, S9, Aroclor 1254 with NADP): inactive; negative
- mutagenic call (End Point: In vitro micronucleus, Test System: CTLL-2 T mouse lymphocyte cells, Metabolic Activation: Rat, Kidney, S9, Aroclor 1254 with arachidonic acid instead of NADP): inactive; negative
- mutagenic call (End Point: In vitro micronucleus, Test System: CTLL-2 T mouse lymphocyte cells, Metabolic Activation: Rat, Liver, S9, Aroclor 1254): inactive; negative
- mutagenic call (End Point: In vitro micronucleus, Test System: CTLL-2 bcl2 mouse lymphocyte cells, Metabolic Activation: None): active; positive
- mutagenic call (End Point: In vitro micronucleus, Test System: CTLL-2 bcl2 mouse lymphocyte cells, Metabolic Activation: Rat, Kidney, S9, Aroclor 1254 with NADP): inactive; negative
- mutagenic call (End Point: In vitro micronucleus, Test System: CTLL-2 bcl2 mouse lymphocyte cells, Metabolic Activation: Rat, Kidney, S9, Aroclor 1254 with arachidonic acid instead of NADP): inactive; negative
- mutagenic call (End Point: In vitro micronucleus, Test System: CTLL-2 bcl2 mouse lymphocyte cells, Metabolic Activation: Rat, Liver, S9, Aroclor 1254): inactive; negative
- mutagenic call (End Point: In vitro micronucleus, Test System: L5178Y mouse lymphoma cells, Metabolic Activation: None): active; positive
- mutagenic call (End Point: In vitro micronucleus, Test System: L5178Y mouse lymphoma cells, Metabolic Activation: Rat, Kidney, S9, Aroclor 1254 with NADP): inactive; negative
- mutagenic call (End Point: In vitro micronucleus, Test System: L5178Y mouse lymphoma cells, Metabolic Activation: Rat, Kidney, S9, Aroclor 1254 with arachidonic acid instead of NADP): inactive; negative
- mutagenic call (End Point: In vitro micronucleus, Test System: L5178Y mouse lymphoma cells, Metabolic Activation: Rat, Liver, S9, Aroclor 1254): inactive; negative
- mutagenic call (Test System: AMES SALMONELLA TYPHIMURIUM, Strain/Indicator: TA97, Metabolic Activation: HAMSTER, LIVER, S-9, AROCLOR 1254 (10 OR 30%), Method: PREINCUBATION): inactive; negative
- mutagenic call (Test System: AMES SALMONELLA TYPHIMURIUM, Strain/Indicator: TA97, Metabolic Activation: NONE, Method: PREINCUBATION): inactive; negative
- mutagenic call (Test System: AMES SALMONELLA TYPHIMURIUM, Strain/Indicator: TA97, Metabolic Activation: NONE, Method: SUSPENSION/PLATE): inactive; negative
- mutagenic call (Test System: AMES SALMONELLA TYPHIMURIUM, Strain/Indicator: TA97, Metabolic Activation: RAT, LIVER, S-9, AROCLOR 1254 (10 OR 30%), Method: PREINCUBATION): inactive; negative
- mutagenic call (Test System: AMES SALMONELLA TYPHIMURIUM, Strain/Indicator: TA98, Metabolic Activation: HAMSTER, LIVER, S-9, AROCLOR 1254 (10 OR 30%), Method: PREINCUBATION): inactive; negative
- mutagenic call (Test System: AMES SALMONELLA TYPHIMURIUM, Strain/Indicator: TA98, Metabolic Activation: HAMSTER, LIVER, S-9, AROCLOR 1254, Method: STANDARD PLATE): inactive; negative
- mutagenic call (Test System: AMES SALMONELLA TYPHIMURIUM, Strain/Indicator: TA98, Metabolic Activation: HAMSTER, LIVER, S-9, Method: STANDARD PLATE): inactive; negative
- mutagenic call (Test System: AMES SALMONELLA TYPHIMURIUM, Strain/Indicator: TA98, Metabolic Activation: MOUSE, LIVER, S-9, AROCLOR 1254, Method: STANDARD PLATE): inactive; negative
- mutagenic call (Test System: AMES SALMONELLA TYPHIMURIUM, Strain/Indicator: TA98, Metabolic Activation: MOUSE, LIVER, S-9, Method: STANDARD PLATE): inactive; negative
- mutagenic call (Test System: AMES SALMONELLA TYPHIMURIUM, Strain/Indicator: TA98, Metabolic Activation: NONE, Method: PREINCUBATION): inactive; negative
- mutagenic call (Test System: AMES SALMONELLA TYPHIMURIUM, Strain/Indicator: TA98, Metabolic Activation: NONE, Method: STANDARD PLATE): inactive; negative
- mutagenic call (Test System: AMES SALMONELLA TYPHIMURIUM, Strain/Indicator: TA98, Metabolic Activation: NONE, Method: SUSPENSION/PLATE): inactive; negative
- mutagenic call (Test System: AMES SALMONELLA TYPHIMURIUM, Strain/Indicator: TA98, Metabolic Activation: RAT, LIVER, S-9, AROCLOR 1254 (10 OR 30%), Method: PREINCUBATION): inactive; negative
- mutagenic call (Test System: AMES SALMONELLA TYPHIMURIUM, Strain/Indicator: TA98, Metabolic Activation: RAT, LIVER, S-9, AROCLOR 1254, Method: STANDARD PLATE): inactive; negative
- mutagenic call (Test System: AMES SALMONELLA TYPHIMURIUM, Strain/Indicator: TA98, Metabolic Activation: RAT, LIVER, S-9, Method: STANDARD PLATE): inactive; negative
- mutagenic call (Test System: AMES SALMONELLA TYPHIMURIUM, Strain/Indicator: TA100(1,8-DNP6), Metabolic Activation: NONE, Method: SUSPENSION/PLATE): inactive; negative
- mutagenic call (Test System: AMES SALMONELLA TYPHIMURIUM, Strain/Indicator: TA100(NR), Metabolic Activation: NONE, Method: SUSPENSION/PLATE): inactive; negative
- mutagenic call (Test System: AMES SALMONELLA TYPHIMURIUM, Strain/Indicator: TA100, Metabolic Activation: HAMSTER, LIVER, S-9, AROCLOR 1254 (10 OR 30%), Method: PREINCUBATION): inactive; negative
- mutagenic call (Test System: AMES SALMONELLA TYPHIMURIUM, Strain/Indicator: TA100, Metabolic Activation: HAMSTER, LIVER, S-9, AROCLOR 1254, Method: STANDARD PLATE): inactive; negative
- mutagenic call (Test System: AMES SALMONELLA TYPHIMURIUM, Strain/Indicator: TA100, Metabolic Activation: HAMSTER, LIVER, S-9, Method: STANDARD PLATE): inactive; negative
- mutagenic call (Test System: AMES SALMONELLA TYPHIMURIUM, Strain/Indicator: TA100, Metabolic Activation: MOUSE, LIVER, S-9, AROCLOR 1254, Method: STANDARD PLATE): inactive; negative
- mutagenic call (Test System: AMES SALMONELLA TYPHIMURIUM, Strain/Indicator: TA100, Metabolic Activation: MOUSE, LIVER, S-9, Method: STANDARD PLATE): inactive; negative
- mutagenic call (Test System: AMES SALMONELLA TYPHIMURIUM, Strain/Indicator: TA100, Metabolic Activation: NONE, Method: PREINCUBATION): inactive; negative
- mutagenic call (Test System: AMES SALMONELLA TYPHIMURIUM, Strain/Indicator: TA100, Metabolic Activation: NONE, Method: STANDARD PLATE): inactive; negative
- mutagenic call (Test System: AMES SALMONELLA TYPHIMURIUM, Strain/Indicator: TA100, Metabolic Activation: NONE, Method: SUSPENSION/PLATE): inactive; negative
- mutagenic call (Test System: AMES SALMONELLA TYPHIMURIUM, Strain/Indicator: TA100, Metabolic Activation: RAT, LIVER, S-9, AROCLOR 1254 (10 OR 30%), Method: PREINCUBATION): inactive; negative
- mutagenic call (Test System: AMES SALMONELLA TYPHIMURIUM, Strain/Indicator: TA100, Metabolic Activation: RAT, LIVER, S-9, AROCLOR 1254, Method: STANDARD PLATE): inactive; negative
- mutagenic call (Test System: AMES SALMONELLA TYPHIMURIUM, Strain/Indicator: TA100, Metabolic Activation: RAT, LIVER, S-9, Method: STANDARD PLATE): inactive; negative
- mutagenic call (Test System: AMES SALMONELLA TYPHIMURIUM, Strain/Indicator: TA102, Metabolic Activation: NONE, Method: SUSPENSION/PLATE): inactive; negative
- mutagenic call (Test System: AMES SALMONELLA TYPHIMURIUM, Strain/Indicator: TA1535, Metabolic Activation: HAMSTER, LIVER, S-9, AROCLOR 1254 (10 OR 30%), Method: PREINCUBATION): inactive; negative
- mutagenic call (Test System: AMES SALMONELLA TYPHIMURIUM, Strain/Indicator: TA1535, Metabolic Activation: HAMSTER, LIVER, S-9, AROCLOR 1254, Method: STANDARD PLATE): inactive; negative
- mutagenic call (Test System: AMES SALMONELLA TYPHIMURIUM, Strain/Indicator: TA1535, Metabolic Activation: HAMSTER, LIVER, S-9, Method: STANDARD PLATE): inactive; negative
- mutagenic call (Test System: AMES SALMONELLA TYPHIMURIUM, Strain/Indicator: TA1535, Metabolic Activation: MOUSE, LIVER, S-9, AROCLOR 1254, Method: STANDARD PLATE): inactive; negative
- mutagenic call (Test System: AMES SALMONELLA TYPHIMURIUM, Strain/Indicator: TA1535, Metabolic Activation: MOUSE, LIVER, S-9, Method: STANDARD PLATE): inactive; negative
- mutagenic call (Test System: AMES SALMONELLA TYPHIMURIUM, Strain/Indicator: TA1535, Metabolic Activation: NONE, Method: PREINCUBATION): inactive; negative
